# Measurements: patent publication US10570122B2, “Compounds with anti-tumoral activity” (AB Science, priority 2015, dated 2020)
# pIC50: −log10 of the molar value.
# Legend:
# HL60 = assay: CellTiter-Blue cell-based survival/proliferation assay, HL60; settings: Homo sapiens, HL-60, Leukemia cell line HL60, 48 h, read-out: Anti-tumoral activity (measured IC50) HL60
# Procedure, shortened: (§1)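 Compounds, diluted tenfold serially over 0–10 μM, are applied to 1·10^4 seeded cells per well for 48 h at 37 °C. Resorufin formed during a further 4 h with CellTiter-Blue is detected by fluorescence emission at 590 nm.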
# PLCPRF5 = assay: CellTiter-Blue cell-based survival/proliferation assay, PLCPRF5; settings: Homo sapiens, PLC-PRF-5; PLC_PRF5 liver tumor cell line, 48 h
# Procedure, shortened: as §1
# AGS = assay: CellTiter-Blue cell-based survival/proliferation assay, AGS; settings: Homo sapiens; AGS stomach tumor cell line, 48 h
# Procedure, shortened: as §1
# SW579 = assay: CellTiter-Blue cell-based survival/proliferation assay, SW579; settings: Homo sapiens; SW579 head & neck tumor cell line, 48 h
# Procedure, shortened: as §1
# KARPAS299 = assay: CellTiter-Blue cell-based survival/proliferation assay, KARPAS299; settings: Homo sapiens, KARPAS-299, Lymphoma cell line KARPAS299, 48 h, read-out: Anti-tumoral activity (measured IC50) KARPAS299
# Procedure, shortened: as §1
# A498 = assay: CellTiter-Blue cell-based survival/proliferation assay, A498; settings: Homo sapiens; A498 kidney tumor cell line, 48 h
# Procedure, shortened: as §1
# BT20 = assay: CellTiter-Blue cell-based survival/proliferation assay, BT20; settings: Homo sapiens, BT-20; BT20 breast tumor cell line, 48 h
# Procedure, shortened: as §1
# HCT116 = assay: CellTiter-Blue cell-based survival/proliferation assay, HCT116; settings: Homo sapiens, HCT-116; HCT116 colorectal tumor cell line, 48 h
# Procedure, shortened: as §1
# A549 = assay: CellTiter-Blue cell-based survival/proliferation assay, A549; settings: Homo sapiens; A549 lung tumor cell line, 48 h
# Procedure, shortened: as §1
# MESSA = assay: CellTiter-Blue cell-based survival/proliferation assay, MESSA; settings: Homo sapiens, MES-SA; MESSA ovary tumor cell line, 48 h
# Procedure, shortened: as §1
# A4513 = assay: CellTiter-Blue cell-based survival/proliferation assay, A4513; settings: Homo sapiens; A4513 Ewing cell line, 48 h
# Experimental: (§2) Cell-Based Proliferation Screening of Compounds
# (§3) CellTiter-Blue cell-based survival/proliferation assay (Promega G8080) was performed on tumor cell lines. A total of 1·10^4 cells/well/50 μl were seeded in a 96-wells plate. Treatment was initiated by addition of a 2× drug solution of 1/10 serial dilutions ranging from 0 to 10 μM. Cells were grown for 48 h at 37° C. and then incubated with 10 μl/well of Promega CellTiter-Bleue reagent for 4 h at 37° C. The amount of resorufin dye formed was quantified by its fluorescence emission at 590 nm using a scanning multiwell spectrophotometer (OPTIMA, BMG labtech, France). A blank well without cells was used as a background control for the spectrophotometer.
# MDAMB231 = assay: CellTiter-Blue cell-based survival/proliferation assay, MDAMB231; settings: Homo sapiens, MDA-MB-231; MDAMB231 breast tumor cell line, 48 h
# Procedure, shortened: as §1
# PC3 = assay: CellTiter-Blue cell-based survival/proliferation assay, PC3; settings: Homo sapiens, PC-3; PC3 prostate tumor cell line, 48 h
# Procedure, shortened: as §1
# OPM2 = assay: CellTiter-Blue cell-based survival/proliferation assay, OPM2; settings: Homo sapiens, OPM-2, Myeloma cell line OPM2, 48 h, read-out: Anti-tumoral activity (measured IC50) OPM2
# Procedure, shortened: as §1
# TOV112D = assay: CellTiter-Blue cell-based survival/proliferation assay, TOV112D; settings: Homo sapiens; TOV112D ovary tumor cell line, 48 h
# Procedure, shortened: as §1
# MELWO = assay: CellTiter-Blue cell-based survival/proliferation assay, MELWO; settings: Homo sapiens; MEL_WO melanoma cell line, 48 h
# Experimental: as §2, §3
# DLD1 = assay: CellTiter-Blue cell-based survival/proliferation assay, DLD1; settings: Homo sapiens, DLD-1; DLD_1 colorectal tumor cell line, 48 h
# Procedure, shortened: as §1
# REC1 = assay: CellTiter-Blue cell-based survival/proliferation assay, REC1; settings: Homo sapiens, Lymphoma cell line REC1, 48 h, read-out: Anti-tumoral activity (measured IC50) REC1
# Procedure, shortened: as §1
# CLS354 = assay: CellTiter-Blue cell-based survival/proliferation assay, CLS354; settings: Homo sapiens, CLS-354; CLS354_4 head & neck tumor cell line, 48 h
# Procedure, shortened: as §1
# PANC1 = assay: CellTiter-Blue cell-based survival/proliferation assay, PANC1; settings: Homo sapiens, PANC-1; PANC_1 pancreas tumor cell line, 48 h
# Procedure, shortened: as §1
# H1299 = assay: CellTiter-Blue cell-based survival/proliferation assay, H1299; settings: Homo sapiens, NCI-H1299; H1299 lung tumor cell line, 48 h
# Procedure, shortened: as §1
# BXPC3 = assay: CellTiter-Blue cell-based survival/proliferation assay, BXPC3; settings: Homo sapiens, BXPC-3; BXPC3 pancreas tumor cell line, 48 h
# Procedure, shortened: as §1
# CALU6 = assay: CellTiter-Blue cell-based survival/proliferation assay, CALU6; settings: Homo sapiens, Calu-6; CALU6 lung tumor cell line, 48 h
# Procedure, shortened: as §1
# A375 = assay: CellTiter-Blue cell-based survival/proliferation assay, A375; settings: Homo sapiens, A-375; A375 melanoma cell line, 48 h
# Experimental: as §2, §3
# ACHN = assay: CellTiter-Blue cell-based survival/proliferation assay, ACHN; settings: Homo sapiens; ACHN kidney tumor cell line, 48 h
# Procedure, shortened: as §1
# U87MG = assay: CellTiter-Blue cell-based survival/proliferation assay, U87MG; settings: Homo sapiens, U-87 MG; U87_MG glioblastoma cell line, 48 h
# Experimental: as §2, §3
# U118 = assay: CellTiter-Blue cell-based survival/proliferation assay, U118; settings: Homo sapiens; U118 glioblastoma cell line, 48 h
# Experimental: as §2, §3
# HUT78 = assay: CellTiter-Blue cell-based survival/proliferation assay, HUT78; settings: Homo sapiens, Lymphoma cell line HUT78, 48 h, read-out: Anti-tumoral activity (measured IC50) HUT78
# Procedure, shortened: as §1
# HEP2 = assay: CellTiter-Blue cell-based survival/proliferation assay, HEP2; settings: Homo sapiens, HEp-2; HEP2 head & neck tumor cell line, 48 h
# Procedure, shortened: as §1
# HGC27 = assay: CellTiter-Blue cell-based survival/proliferation assay, HGC27; settings: Homo sapiens, HGC-27; HGC27 stomach tumor cell line, 48 h
# Procedure, shortened: as §1
# U2OS = assay: CellTiter-Blue cell-based survival/proliferation assay, U2OS; settings: Homo sapiens; U2OS osteosarcoma cell line, 48 h
# Experimental: as §2, §3
# HEPG2 = assay: CellTiter-Blue cell-based survival/proliferation assay, HEPG2; settings: Homo sapiens; HEPG2 liver tumor cell line, 48 h
# Procedure, shortened: as §1
# DU145 = assay: CellTiter-Blue cell-based survival/proliferation assay, DU145; settings: Homo sapiens, DU-145; DU145 prostate tumor cell line, 48 h
# Procedure, shortened: as §1
SMILES,pIC50 (HL60),pIC50 (PLCPRF5),pIC50 (AGS),pIC50 (SW579),pIC50 (A498),pIC50 (BT20),pIC50 (HCT116),pIC50 (MESSA),pIC50 (A4513),pIC50 (MDAMB231),pIC50 (PC3),pIC50 (OPM2),pIC50 (TOV112D),pIC50 (MELWO),pIC50 (DLD1),pIC50 (CLS354),pIC50 (PANC1),pIC50 (H1299),pIC50 (BXPC3),pIC50 (CALU6),also measured
"CCOCc1ccc(C)c(Nc2ncc(-c3ccc(-n4cccn4)nc3)o2)c1 [Example 007, (5-Ethoxymethyl-2-methyl-phenyl)-[5-(6-pyrazol-1-yl-pyridin-3-yl)-oxazol-2-yl]-amine]",6.30 to 7.00,< 6.00,≥ 7.00,< 6.00,< 6.00,< 6.00,< 6.00,< 6.00,6.30 to 7.00,< 6.00,6.30 to 7.00,6.30 to 7.00,≥ 7.00,< 6.00,6.00 to 6.30,≥ 7.00,< 6.00,< 6.00,< 6.00,< 6.00,pIC50 (KARPAS299): ≥ 7.00; pIC50 (A549): < 6.00; pIC50 (REC1): ≥ 7.00; pIC50 (A375): ≥ 7.00; pIC50 (ACHN): 6.30 to 7.00; pIC50 (U87MG): < 6.00; pIC50 (U118): < 6.00; pIC50 (HUT78): ≥ 7.00; pIC50 (HEP2): 6.30 to 7.00; pIC50 (HGC27): 6.30 to 7.00; pIC50 (U2OS): < 6.00; pIC50 (HEPG2): < 6.00; pIC50 (DU145): < 6.00
"CCOCc1ccc(C)c(Nc2nnc(-c3ccc(N4CCNC4=O)cc3)o2)c1 [Example 008, 1-{4-[5-(5-Ethoxymethyl-(2-methyl-phenylamino))-[1,3,4]oxadiazol-2-yl]-phenyl}-imidazolidin-2-one]",≥ 7.00,< 6.00,< 6.00,6.00 to 6.30,< 6.00,< 6.00,≥ 7.00,< 6.00,< 6.00,< 6.00,≥ 7.00,≥ 7.00,≥ 7.00,6.00 to 6.30,< 6.00,6.30 to 7.00,< 6.00,< 6.00,< 6.00,< 6.00,pIC50 (KARPAS299): ≥ 7.00; pIC50 (REC1): ≥ 7.00; pIC50 (A375): ≥ 7.00; pIC50 (ACHN): ≥ 7.00; pIC50 (U87MG): < 6.00; pIC50 (U118): < 6.00; pIC50 (HUT78): ≥ 7.00; pIC50 (HEP2): ≥ 7.00; pIC50 (HGC27): 6.00 to 6.30; pIC50 (U2OS): < 6.00; pIC50 (HEPG2): < 6.00; pIC50 (DU145): < 6.00
"CCOCc1ccc(C)c(Nc2nnc(-c3ccc(-n4cccn4)cc3)o2)c1 [Example 009, (5-Ethoxymethyl-2-methyl-phenyl)-[5-(4-pyrazol-1-yl-phenyl)-[1,3,4]oxadiazol-2-yl]-amine]",< 6.00,< 6.00,< 6.00,< 6.00,< 6.00,< 6.00,< 6.00,< 6.00,< 6.00,< 6.00,< 6.00,< 6.00,< 6.00,< 6.00,< 6.00,< 6.00,< 6.00,< 6.00,< 6.00,< 6.00,pIC50 (A549): < 6.00; pIC50 (A375): < 6.00; pIC50 (ACHN): < 6.00; pIC50 (U87MG): < 6.00; pIC50 (U118): < 6.00; pIC50 (HEP2): < 6.00; pIC50 (HGC27): < 6.00; pIC50 (U2OS): < 6.00; pIC50 (HEPG2): < 6.00; pIC50 (DU145): < 6.00
